Results published in US5962418A, “Factor VII-derived peptides” (Nycomed Imaging A/S, priority 1993, dated 1999).
Where a SMILES comes first, the peptide text is derived from it. Bridges are numbered along the chain shown (N, C = ends).

How the values were obtained:
[1] = molecular target: T1, tissue factor (TF) expressed on the surface of living cells (Homo sapiens, UniProt P13726); assay: Assay of cell-surface TF initiated coagulation of plasma (microcarrier coagulation assay); format: cell-based; conditions: peptide 0.5 mM
T1 construct: induced by tissue factor (TF) expressed on the surface of living cells; endogenous in cells; host or cells: living cells on Cytodex-3 microcarriers (e.g. human HT-1080 or ECV-304)
Procedure: FIGS. 9A-9C Principle of the microcarrier assay of cell-surface mediated coagulation of blood plasma. Living cells (e.g., human HT-1080 fibrosarcoma; ATCC CRL 121) adherent on the surface of microcarriers are mixed with a calcium-containing buffer and plasma in the incubation well of a Thrombotrack™ electromagnetic coagulometer (Nycomed). The clotting time is measured by the increase in resistance to movement of a magnetic ball produced by the formation of fibrin fibres. HT-1080 cells adherent on Cytodex-3 microcarriers are shown in FIG. 9C as an example of the types of cells expressing TF which may be used.
Assay of Cell-surface TF Initiated Coagulation of Plasma
A novel assay system has been devised to measure the coagulation of blood plasma (i.e. clotting time) induced by tissue factor (TF) expressed on the surface of living cells. This assay makes use of human or animal cells adherent on the surface of microcarriers (see FIG. 9), which enables reproducible presentation of known amounts of TF activity in the stirred measuring well of an electromagnetic coagulometer. The cells used may be normal or transformed, and representing phenotypes such as monocytes, endothelium, fibroblasts etc (see FIG. 10).
This novel assay has been particularly developed and characterised so as to be highly useful in determining the effect of synthetic peptides and peptidomimetic compounds on the extrinsic pathway of coagulation, using living cells in a plasma milieu. Results for the inhibitory effect of synthetic peptides based upon the amino acid sequence of human FVII are disclosed.
The microcarrier cell preparation is made as follows. Cells obtained from primary isolates or subcultures of transformed lines (see FIG. 10) are suspended in a small volume of serum-containing medium and mixed with microcarriers (Cytodex-3, Pharmacia) in a ratio of about 50-100 cells/microcarrier. The cells are usually adhere nt on the microcarriers within 2 hours, and can then be transferred to normal roller bottles with a larger volume of culture medium. Uniform coverage of microcarriers with about 20-60 cells can be obtained directly with transformed cells, when large cell numbers are available, or after 2 days growth when primary cultures (e.g. umbilical vein endothelial cells) are used. […]
To assay the extrinsic coagulation activity, the microcarrier cell preparations are first washed with a calcium-free buffer to remove bound serum factors. A calcium-containing buffer and plasma are then added and the clotting time is determined automatically in an electromagnetic coagulometer. […]

[2] = molecular target: FVII binding to immobilized rTF (Homo sapiens, UniProt P13726); assay: ELISA assay of inhibition of FVII binding to immobilized rTF; conditions: for inhibition at 500 µM: peptide 0.5 mM
Procedure: FIG. 13 ELISA assay of the inhibition of FVII binding to immobilized rTF produced by synthetic FVII peptides (all at 0.5 mM). For peptide sequences see the table of peptides below (page 19). C and L denote the cyclic and linear forms respectively of peptides with terminal cysteines.
The inhibition results shown in FIG. 13 indicate that in addition to sequences from the "hinge" region (i.e. residues 41-48 between the GLA domain and the first EGF domain, […]) and from the first EGF domain itself (i.e. residues 50-61; Clarke et al), there exist additional sequences in the second EGF domain (especially 95-104) which are inhibitors when presented as peptides in this binding assay.

FVIIa/TF = molecular target: T2, FVIIa/TF (Homo sapiens, UniProt P13726); assay: Kinetics of inhibition of FX activation (assay of FVIIa/TF activity); format: biochemical; conditions: varying FVII-5 and Factor X concentrations
T2 construct: purchased Behringwerk (TF, Thromborel); Diagnostica Stago (FVIIa)
Procedure: Peptides (0-1 mM) were preincubated in 0.1 M Tris.HCl pH 7.2 with tissue factor (Thromborel®, Behringwerk, Marburg, Germany; 0.2% final concentration) at 22° C. for 30 minutes, then Factor X (American Diagnostica Inc., Greenwich, Conn. USA; 70 nM was added followed by FVIIa (Diagnostica Stago, Asnieres, France; 8 pM and CaCl2 (5 mM). Incubations were continued for 30 minutes and quenched with EDTA (50 mM) which removes essential Ca^2+. The FXa produced was quantified by monitoring hydrolysis of the chromegenic FX substrate S-2222 (Chromogenix,Molndal, Sweden).
The kinetics of inhibition of FX activation by FVII-5 was investigated. Varying concentrations of FVII-5 were incubated with different concentrations of Factor X in the presence or absence of TF and FVIIa.

[3] = molecular target: T3, purified human FVIIa bound to recombinant human TF (apoTF/FVIIa) (Homo sapiens, UniProt P13726); assay: Assay of apoTF/FVIIa catalytic (amidolytic) activity; format: biochemical; conditions: for IC50: read-out: IC50, Amidolytic apo TF Assay
T3 construct: purchased American Diagnostica (TF); Enzyme Research Laboratories (FVIIa) 4500 (TF); HFVlla (FVIIa)
Procedure: Assay of apoTF/FVIIa Catalytic Activity
This […] assay was used to measure directly the amidolytic (catalytic) activity of purified human FVIla when bound to recombinant human TF in the absence of phospholipid.
Reactions were performed in microtitre plate wells, using a final incubation volume of 200 uL. Test compounds, dissolved in water, (final concentration, 0-1 mM) were preincubated with recombinant human tissue factor (American Diagnostica, cat# 4500; 5 nM) and CaCl2 (5 mM) in Tris buffer (100 mM), pH 7.2, containing NaCl (150 mM) and BSA (1 mg/mL) at ambient temperature for 30 minutes. Factor Vlla (Enzyme Research Laboratories, cat# HFVlla; 5 nM) was added and the incubations continued for 60 minutes. Chromogenic substrate, S2288 (Chromogenix cat# 820852; 0.5 mM) was then added and the enzymatic activity of the tissue factor apoprotein/factor VII complex (apoTF/FVlla) was monitored at 405 nm.

[4] = system: coagulation factors of the intrinsic and common pathways of coagulation; assay: Coagulation assay initiated by contact activation (Cephotest); conditions: all coagulation factors other than TF/FVII
Source text: The effect of the peptides observed in the coagulation assay could conceivably have been due to effects on another one or more of the several components contributing to the coagulation cascade. This possibility was therefore tested by adding the peptides to coagulation assays which were initiated by contact activation (Cephotest™, Nycomed), and therefore involved coagulation factors of the intrinsic and common pathways of coagulation, i.e. all coagulation factors other than TF/FVII. […] Thus evidence was obtained that the effects observed in the TF/FVII initiated coagulation assay above were in fact due to a direct effect on the TF/FVII complex.

[5] = molecular target: T4, native TF/FVIIa complex on the surface of HT-1080 cells (Homo sapiens, UniProt P13726); assay: Assay of HT1080 cell surface TF/FVIIa mediated activation of FX (amidolytic microcarrier assay); format: cell-based
T4 construct: native TF/FVIIa complex on the surface of living cells expressing TF in their cell membrane; endogenous in cells; host or cells: HT-1080 human fibrosarcoma cells on Cytodex-3 microcarriers

[6] = molecular target: binding of Factor VII to tissue factor (Homo sapiens, UniProt P13726); assay: Inhibition of FVII/TF binding or FVII activity, assay not specified (summary statements)
[7] = molecular target: Factor VII and tissue factor (Homo sapiens, UniProt P13726); conditions: Corvas Inc., Table 1 of WO90/03390; cited from earlier work
Sequence of Factor VII and tissue factor (P13726 33-295, species assumed): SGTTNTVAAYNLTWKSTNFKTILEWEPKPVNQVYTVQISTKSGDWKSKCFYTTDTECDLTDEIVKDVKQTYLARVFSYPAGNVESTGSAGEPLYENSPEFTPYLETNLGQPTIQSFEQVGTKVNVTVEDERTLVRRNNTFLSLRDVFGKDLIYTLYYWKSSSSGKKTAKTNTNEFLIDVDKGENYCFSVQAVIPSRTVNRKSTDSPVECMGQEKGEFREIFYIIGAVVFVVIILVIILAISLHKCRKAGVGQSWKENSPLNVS

T3 sequence (P13726 33-295): as the sequence (P13726 33-295, species assumed) above
T1 sequence (P13726 33-295): as the sequence (P13726 33-295, species assumed) above
Sequence of FVII binding to immobilized rTF (P13726 33-295): as the sequence (P13726 33-295, species assumed) above
Sequence of binding of Factor VII to tissue factor (P13726 33-295): as the sequence (P13726 33-295, species assumed) above
T4 sequence (P13726 33-295, one chain of several): as the sequence (P13726 33-295, species assumed) above
T2 sequence (P13726 33-295): as the sequence (P13726 33-295, species assumed) above

Row | Compound | inhibition at 500 µM [1] | Effect on contact-activated coagulation (specificity) [4] | Inhibitory activity, in words [6] | Inhibition of activation of Factor X by Factor VII and tissue factor as reported in WO90/03390 [7] | further results
1 | CC(C)C[C@@H]1NC(=O)[C@@H](N)CSSC[C@@H](C(=O)O)NC(=O)[C@H](CC(N)=O)NC(=O)[C@H](CCCNC(=N)N)NC(=O)CNC(=O)[C@H](CCC(=O)O)NC(=O)[C@H](Cc2ccccc2)NC(=O)[C@H](C)NC(=O)[C@@H]2CCCN2C1=O [72-81(C)] | 22% |  |  |  | inhibition at 500 µM [2]: 89%
2 | CC(C)[C@@H]1NC(=O)[C@@H](N)CSSC[C@@H](C(=O)O)NC(=O)[C@H](Cc2ccc(O)cc2)NC(=O)[C@H](CCC(N)=O)NC(=O)[C@H](CCC(=O)O)NC(=O)[C@H](CS)NC(=O)CNC(=O)CNC(=O)[C@H](CC(N)=O)NC(=O)[C@H](CCC(=O)O)NC(=O)[C@H](CC(N)=O)NC1=O [91-102(C)] (H-CVNENGGCEQYC-OH; disulfide 1-12 (inferred)) |  |  |  |  | Mode of inhibition of Factor X activation (FVIIa/TF): noncompetitive inhibition
3 | CC(C)[C@H](NC(=O)[C@@H](N)CS)C(=O)N[C@@H](CC(N)=O)C(=O)N[C@@H](CCC(=O)O)C(=O)N[C@@H](CC(N)=O)C(=O)NCC(=O)NCC(=O)N[C@@H](CS)C(=O)N[C@@H](CCC(=O)O)C(=O)N[C@@H](CCC(N)=O)C(=O)N[C@@H](Cc1ccc(O)cc1)C(=O)N[C@@H](CS)C(=O)O [91-102(L)] (H-CVNENGGCEQYC-OH; N-terminus and C-terminus assumed) | 14% |  |  |  | IC50 [2]: 60 µM; IC50 [3]: 1140 µM
4 | CC(C)C[C@@H]1NC(=O)[C@H](CC(C)C)NC(=O)[C@H](CO)NC(=O)[C@H](Cc2ccc(O)cc2)NC(=O)CNC(=O)[C@H](CCC(=O)O)NC(=O)[C@H](Cc2c[nH]cn2)NC(=O)[C@@H](N)CSSC[C@@H](C(=O)O)NC(=O)[C@H](CO)NC(=O)[C@H](C(C)C)NC(=O)CNC(=O)[C@H](CC(=O)O)NC(=O)[C@H](C)NC1=O [114-127(C)] (H-CHEGYSLLADGVSC-OH; disulfide 1-14) | 44% |  |  |  | inhibition at 500 µM [2]: 77%; inhibition at 500 µM ([3]; peptide 0.5 mM, did not reach near-quantitative inhibition at 1 mM, read-out: % inhibition at 0.5 mM, Amidolytic apo TF Assay): 21%
5 | Ac-SDHTGTKRS-NH2 [103-111] | 30% | inactive |  |  | inhibition at 500 µM [2]: 59%; IC50 ([5]; HT-1080 cells on microcarriers): 870 µM; IC50 [3]: 2200 µM
6 | CHEGYSLLADGVSC [114-127, FVII residues 114-127] |  |  | relatively active | zero inhibitory acticity | 
7 | CLPAFEGRNC [72-81] |  |  |  | zero inhibitory acticity | Synergistic enhancement of the inhibitory action of peptides of the sequence 91 to 104 ([6]; in combination): acted synergistically
8 | CVNENGGCEQYC [91-102, FVII residues 91-102] |  | inactive | particularly active | zero inhibitory acticity | 
9 | Hirudin [reference compound] |  | strongly inhibitory |  |  | 
10 | NGGCEQYCSD [95-104, FVII residues 95 to 104] |  | inactive | most active inhibitor so far tested |  | Inhibition of FVII binding to rTF, in words ([2]; peptides at 0.5 mM (FIG. 13)): inhibitors
11 | SDHTGTKRSC [reference compound] |  |  | only moderate activity | active | Inhibitor of the binding of Factor VII to tissue factor, in words [6]: rather poor inhibitor
12 | TAP: tick anticoagulant polypeptide; control inhibitor of FX (YNRLCIKPRDWIDECDSNEGGERAYFRNGKGGCDSFWICPEDHTGADYYSSYRDCFNACI; UniProt P17726 1-60, looked up) [reference compound] |  | strongly inhibitory |  |  | Inhibition of FXa amidolytic activity generated by HT-1080 cell-surface TF/FVIIa ([5]; HT-1080 cells): inhibition of activity
